Laboratory results published in article PMC4770093, “The role of kinetic context in apparent biased agonism at GPCRs” (Nature Communications, 2016).
Several values for one entry are separate records, joined by “and”; a condition that tells them apart may be missing. Equal values may be shown once.

Assays:
D2LR [1] = biological target: T1, D2LR (Homo sapiens, UniProt P14416); conditions: 0.1 nM [3H]spiperone; 3 h at 37 °C; 100 μM GppNHp
Experimental: The cells were harvested in PBS containing 2 mM EDTA and centrifuged at 300 g for 3 min. The resulting pellet was resuspended in ice-cold assay buffer (20 mM HEPES, 100 mM NaCl, 6 mM MgCl2, 1 mM EGTA and 1 mM EDTA pH 7.4) and the centrifugation step was repeated. The intact cell pellet was then resuspended in assay buffer and homogenized using a Polytron homogenizer. After centrifugation (1,000 g, 10 min), the pellet was discarded and the supernatant was recentrifuged at 30,000 g for 1 h at 4 °C using a Sorvall Evolution RC ultracentrifuge (Thermo Scientific). The resulting pellet was resuspended in assay buffer and stored in 250 μl aliquots at −80 °C. Membrane protein concentration was determined using the method of Bradford.
All radioligand binding experiments were conducted at 37 °C in a 1-ml reaction volume in assay buffer (20 mM HEPES, 100 mM NaCl, 6 mM MgCl2, 1 mM EGTA and 1 mM EDTA pH 7.4) containing 100 μM GppNHp and 0.1% ascorbic acid. In all cases, nonspecific binding was determined in the presence of 10 μM haloperidol. […] Filter-bound radioactivity was measured by scintillation spectrometry after the addition of 3.5 ml of Ultima Gold (PerkinElmer) using a Tri-Carb 2900TR liquid scintillation counter (PerkinElmer).
where Y denotes the percentage-specific binding, Top and Bottom denote the maximal and minimal asymptotes, respectively, IC50 denotes the X-value when the response is midway between Bottom and Top, and nH denotes the Hill slope factor. IC50 values obtained from the inhibition curves were converted to Ki values using the Cheng and Prusoff equation[61].

D2LR [2] = biological target: T1, D2LR; assay: Gαi1 G protein activation (BRET); format: cell-based; set-up: expressed in transfected cells; conditions: 5 minute timepoint
Experimental: G protein activation. Flp-In-CHO cells stably expressing the D2LR were seeded at a density of 2,000,000 cells per 10-cm dish and were transfected the following day using polyethylenimine as the transfection reagent. […] Twenty-four hours after transfection, the cells were plated into 96-well CulturPlates (PerkinElmer) and grown overnight. The cells were equilibrated in Hank's balanced salt solution at 37 °C before starting the experiment. The cells were stimulated with the agonists for the indicated timeframes when the BRET readings were captured. Coelenterazine (Promega) was added at a final concentration of 5 μM at least 3 min before measurement. […] Net BRET was determined by subtraction of the vehicle control from the agonist-induced response.

D2LR [3] = biological target: T1, D2LR; assay: Quantification of biased agonism between pathways (operational model, LogBias); format: cell-based; set-up: expressed in transfected cells; conditions: 5 minute timepoint; dopamine as reference agonist
Procedure, shortened: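 Dose–response data for each pathway were fitted globally to the operational model, with Em and transducer slope shared between agonists, to derive KA and τ. Bias is ΔΔlog(τ/KA), the difference in Δlog(τ/KA) between two pathways. Parameters were estimated as logarithms and are given as mean±s.e.m.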

D2LR [4] = biological target: T1, D2LR; assay: Inhibition of forskolin-induced cAMP production (BRET CAMYEL biosensor); conditions: for Emax cAMP: relative to the maximal response of ropinirole; for Inhibition of cAMP production measured using a CAMYEL BRET biosensor, Net BRET: single experiments n = 1, 2, 3
Experimental: Flp-In-CHO cells stably expressing the D2LR were seeded at a density of 2,000,000 cells per 10-cm dish and were transfected the following day using polyethylenimine as the transfection reagent. The cells were transfected with 3 μg CAMYEL, to allow the detection of cAMP levels within the cells. Twenty-four hours after transfection, the cells were plated into 96-well CulturPlates (PerkinElmer) and grown overnight. The cells were equilibrated in Hank's balanced salt solution at 37 °C (or 25 °C when indicated) before starting the experiment. The cells were co-stimulated with the agonists and 10 μM forskolin for the indicated timeframes when the BRET readings were captured. Coelenterazine (Promega) was added at a final concentration of 5 μM at least 3 min before measurement. […] Net BRET was determined by subtraction of the vehicle control co-added with 10 μM forskolin.

D2LR [5] = biological target: T1, D2LR; assay: xCELLigence cellular impedance (CI) assay; format: cell-based; set-up: expressed in transfected cells; conditions: for Emax CI: relative to the maximal response of ropinirole
Procedure, shortened: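 Label-free impedance readout in D2LR-expressing cells: 20,000 cells/well grown 16–20 h, then serum-starved 4 h. Cell index recorded every 15 s for 90 min after ligand addition, normalized to the value at addition, with vehicle subtracted.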

[6] = 5 minute timepoint, Flp-In-CHO-D2LR
[7] = 5 minute timepoint, dopamine as reference agonist

T1 sequence (P14416 whole entry): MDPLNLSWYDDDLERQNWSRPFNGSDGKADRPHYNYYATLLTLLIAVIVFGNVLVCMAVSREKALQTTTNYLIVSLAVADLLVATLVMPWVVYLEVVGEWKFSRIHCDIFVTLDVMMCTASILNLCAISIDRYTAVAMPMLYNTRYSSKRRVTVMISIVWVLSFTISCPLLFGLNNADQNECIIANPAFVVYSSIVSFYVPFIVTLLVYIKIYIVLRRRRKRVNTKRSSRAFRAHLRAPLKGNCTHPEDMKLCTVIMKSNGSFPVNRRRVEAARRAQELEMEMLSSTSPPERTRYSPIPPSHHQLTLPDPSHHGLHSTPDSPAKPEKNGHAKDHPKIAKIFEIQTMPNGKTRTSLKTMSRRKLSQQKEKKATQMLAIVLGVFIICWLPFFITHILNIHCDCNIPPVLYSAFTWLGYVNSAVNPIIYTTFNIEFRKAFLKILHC

CN1CCN(c2cccc3[nH]c(=O)oc23)CC1 [Pardoprunox, pardoprunox]
pKi (affinity from competition binding experiments using [3H]spiperone) (D2LR [1]): 7.63 ± 0.06 | Log(τ/KA) Gαi1 activation (D2LR [2]; Flp-In-CHO-D2LR): 8.10 ± 0.13 | ΔLog(τ/KA) Gαi1 activation (D2LR [2]; dopamine as reference agonist): 0.93 ± 0.16 | LogBias CI – pERK1/2 (D2LR [3]): 0.24 ± 0.12 | LogBias Gαi1 – CI (D2LR [3]): 0.19 ± 0.18 | LogBias Gαi1 – GαoB (D2LR [3]): 0.48 ± 0.21 | LogBias Gαi1 – cAMP (D2LR [3]): 0.35 ± 0.17 | LogBias Gαi1 – pERK1/2 (D2LR [3]): 0.43 ± 0.19 | LogBias GαoB – CI (D2LR [3]): -0.29 ± 0.15 | LogBias GαoB – cAMP (D2LR [3]): -0.13 ± 0.15 | LogBias GαoB – pERK1/2 (D2LR [3]): -0.05 ± 0.16 | LogBias cAMP – CI (D2LR [3]): -0.16 ± 0.10 | LogBias cAMP – pERK1/2 (D2LR [3]): 0.08 ± 0.12 | LogBias β-arr2 – CI (D2LR [3]): -0.28 ± 0.33 | LogBias β-arr2 – Gαi1 (D2LR [3]): -0.47 ± 0.36 | LogBias β-arr2 – GαoB (D2LR [3]): 0.01 ± 0.34 | LogBias β-arr2 – cAMP (D2LR [3]): -0.12 ± 0.33 | LogBias β-arr2 – pERK1/2 (D2LR [3]): -0.04 ± 0.33 | pEC50 cAMP (D2LR [4]; 2 min): 8.98 | Emax cAMP (D2LR [4]; 2 min): 87 ± 1.9 | pEC50 cAMP (D2LR [4]; 5 min): 8.69 | Emax cAMP (D2LR [4]; 5 min): 87 ± 1.5 | Log(τ/KA) cAMP (D2LR [4]; [6]): 8.64 ± 0.05 | ΔLog(τ/KA) cAMP (D2LR [4]; [7]): 0.58 ± 0.07 | pEC50 cAMP (D2LR [4]; 10 min): 8.39 | Emax cAMP (D2LR [4]; 10 min): 86 ± 1.4 | pEC50 cAMP (D2LR [4]; 15 min): 8.33 | Emax cAMP (D2LR [4]; 15 min): 87 ± 1.6 | pEC50 cAMP (D2LR [4]; 30 min): 8.46 | Emax cAMP (D2LR [4]; 30 min): 85 ± 2.1 | pEC50 cAMP (D2LR [4]; 45 min): 8.03 | Emax cAMP (D2LR [4]; 45 min): 82 ± 1.4 | pEC50 cAMP (D2LR [4]; 60 min): 7.82 | Emax cAMP (D2LR [4]; 60 min): 74 ± 1.8 | pEC50 cAMP (D2LR [4]; 75 min): 8.04 | Emax cAMP (D2LR [4]; 75 min): 84 ± 2.2 | pEC50 cAMP (D2LR [4]; 90 min): 7.83 | Emax cAMP (D2LR [4]; 90 min): 81 ± 1.6 | Inhibition of cAMP production measured using a CAMYEL BRET biosensor, Net BRET (D2LR [4]; time 2.21667 mins): 0.09312 and 0.1119 and 0.09462 | Inhibition of cAMP production measured using a CAMYEL BRET biosensor, Net BRET (D2LR [4]; time 2.58333 mins): 0.09848 and 0.1094 and 0.0984 | Inhibition of cAMP production measured using a CAMYEL BRET biosensor, Net BRET (D2LR [4]; time 2.95 mins): 0.1044 and 0.1291 and 0.0949 | Inhibition of cAMP production measured using a CAMYEL BRET biosensor, Net BRET (D2LR [4]; time 3.31667 mins): 0.1072 and 0.1248 and 0.1125 | Inhibition of cAMP production measured using a CAMYEL BRET biosensor, Net BRET (D2LR [4]; time 3.68333 mins): 0.1144 and 0.1213 and 0.1135 | Inhibition of cAMP production measured using a CAMYEL BRET biosensor, Net BRET (D2LR [4]; time 4.05 mins): 0.1221 and 0.1382 and 0.1172 | Inhibition of cAMP production measured using a CAMYEL BRET biosensor, Net BRET (D2LR [4]; time 4.41667 mins): 0.1176 and 0.1369 and 0.114 | Inhibition of cAMP production measured using a CAMYEL BRET biosensor, Net BRET (D2LR [4]; time 4.78333 mins): 0.1323 and 0.136 and 0.1109 | Inhibition of cAMP production measured using a CAMYEL BRET biosensor, Net BRET (D2LR [4]; time 5.15 mins): 0.1365 and 0.1389 and 0.1171 | Inhibition of cAMP production measured using a CAMYEL BRET biosensor, Net BRET (D2LR [4]; time 5.51667 mins): 0.1301 and 0.1395 and 0.116 | Inhibition of cAMP production measured using a CAMYEL BRET biosensor, Net BRET (D2LR [4]; time 5.88333 mins): 0.1412 and 0.1297 and 0.1213 | Inhibition of cAMP production measured using a CAMYEL BRET biosensor, Net BRET (D2LR [4]; time 6.25 mins): 0.1339 and 0.1324 and 0.1196 | Inhibition of cAMP production measured using a CAMYEL BRET biosensor, Net BRET (D2LR [4]; time 6.61667 mins): 0.1245 and 0.1374 and 0.113 | Inhibition of cAMP production measured using a CAMYEL BRET biosensor, Net BRET (D2LR [4]; time 6.98333 mins): 0.1378 and 0.1302 and 0.1147 | Inhibition of cAMP production measured using a CAMYEL BRET biosensor, Net BRET (D2LR [4]; time 7.35 mins): 0.1418 and 0.1291 and 0.1123 | Inhibition of cAMP production measured using a CAMYEL BRET biosensor, Net BRET (D2LR [4]; time 7.71667 mins): 0.1394 and 0.1366 and 0.1233 | Inhibition of cAMP production measured using a CAMYEL BRET biosensor, Net BRET (D2LR [4]; time 8.08333 mins): 0.1443 and 0.1378 and 0.1166 | Inhibition of cAMP production measured using a CAMYEL BRET biosensor, Net BRET (D2LR [4]; time 8.45 mins): 0.1408 and 0.1371 and 0.1127 | Inhibition of cAMP production measured using a CAMYEL BRET biosensor, Net BRET (D2LR [4]; time 8.81667 mins): 0.144 and 0.1435 and 0.1231 | Inhibition of cAMP production measured using a CAMYEL BRET biosensor, Net BRET (D2LR [4]; time 9.18333 mins): 0.1482 and 0.1437 and 0.1124 | Inhibition of cAMP production measured using a CAMYEL BRET biosensor, Net BRET (D2LR [4]; time 9.55 mins): 0.1472 and 0.1422 and 0.1225 | Inhibition of cAMP production measured using a CAMYEL BRET biosensor, Net BRET (D2LR [4]; time 9.91667 mins): 0.1503 and 0.1391 and 0.1248 | Inhibition of cAMP production measured using a CAMYEL BRET biosensor, Net BRET (D2LR [4]; time 10.2833 mins): 0.1418 and 0.1435 and 0.1207 | Inhibition of cAMP production measured using a CAMYEL BRET biosensor, Net BRET (D2LR [4]; time 10.65 mins): 0.1434 and 0.1464 and 0.1244 | Inhibition of cAMP production measured using a CAMYEL BRET biosensor, Net BRET (D2LR [4]; time 11.0167 mins): 0.1459 and 0.1412 and 0.1263 | Inhibition of cAMP production measured using a CAMYEL BRET biosensor, Net BRET (D2LR [4]; time 11.3833 mins): 0.1508 and 0.1374 and 0.1263 | Inhibition of cAMP production measured using a CAMYEL BRET biosensor, Net BRET (D2LR [4]; time 11.75 mins): 0.1476 and 0.1469 and 0.1207 | Inhibition of cAMP production measured using a CAMYEL BRET biosensor, Net BRET (D2LR [4]; time 12.1167 mins): 0.1454 and 0.1457 and 0.1265 | Inhibition of cAMP production measured using a CAMYEL BRET biosensor, Net BRET (D2LR [4]; time 12.4833 mins): 0.14 and 0.1421 and 0.1315 | Inhibition of cAMP production measured using a CAMYEL BRET biosensor, Net BRET (D2LR [4]; time 12.85 mins): 0.1413 and 0.1515 and 0.1219 | Inhibition of cAMP production measured using a CAMYEL BRET biosensor, Net BRET (D2LR [4]; time 13.2167 mins): 0.1418 and 0.1452 and 0.1337 | Inhibition of cAMP production measured using a CAMYEL BRET biosensor, Net BRET (D2LR [4]; time 13.5833 mins): 0.1514 and 0.1571 and 0.1315 | Inhibition of cAMP production measured using a CAMYEL BRET biosensor, Net BRET (D2LR [4]; time 13.95 mins): 0.1501 and 0.1517 and 0.1357 | Inhibition of cAMP production measured using a CAMYEL BRET biosensor, Net BRET (D2LR [4]; time 14.3167 mins): 0.1522 | pEC50 CI (D2LR [5]; 2 min): 9.30 | Emax CI (D2LR [5]; 2 min): 75 ± 3.6 | pEC50 CI (D2LR [5]; 5 min): 9.41 | Emax CI (D2LR [5]; 5 min): 76 ± 2.7 | Log(τ/KA) Cellular impedance (D2LR [5]; [6]): 9.29 ± 0.06 | ΔLog(τ/KA) Cellular impedance (D2LR [5]; [7]): 0.74 ± 0.07 | pEC50 CI (D2LR [5]; 10 min): 9.22 | Emax CI (D2LR [5]; 10 min): 70 ± 2.2 | pEC50 CI (D2LR [5]; 15 min): 9.20 | Emax CI (D2LR [5]; 15 min): 67 ± 2.5 | pEC50 CI (D2LR [5]; 30 min): 9.06 | Emax CI (D2LR [5]; 30 min): 62 ± 2.9 | pEC50 CI (D2LR [5]; 45 min): 9.02 | Emax CI (D2LR [5]; 45 min): 59 ± 2.4 | pEC50 CI (D2LR [5]; 60 min): 8.95 | Emax CI (D2LR [5]; 60 min): 57 ± 2.2 | pEC50 CI (D2LR [5]; 75 min): 8.87 | Emax CI (D2LR [5]; 75 min): 54 ± 2.1 | pEC50 CI (D2LR [5]; 90 min): 8.80 | Emax CI (D2LR [5]; 90 min): 52 ± 2.0
